Biological target: T1, fibrin gels (40 mg/mL fibrinogen, 33 U/mL thrombin) (Homo sapiens, UniProt P02671+P02675+P02679)
T1 construct: purchased Ethicon (Evicel)
T1 sequence (P02671 20-644 isoform P02671-2 limits assumed): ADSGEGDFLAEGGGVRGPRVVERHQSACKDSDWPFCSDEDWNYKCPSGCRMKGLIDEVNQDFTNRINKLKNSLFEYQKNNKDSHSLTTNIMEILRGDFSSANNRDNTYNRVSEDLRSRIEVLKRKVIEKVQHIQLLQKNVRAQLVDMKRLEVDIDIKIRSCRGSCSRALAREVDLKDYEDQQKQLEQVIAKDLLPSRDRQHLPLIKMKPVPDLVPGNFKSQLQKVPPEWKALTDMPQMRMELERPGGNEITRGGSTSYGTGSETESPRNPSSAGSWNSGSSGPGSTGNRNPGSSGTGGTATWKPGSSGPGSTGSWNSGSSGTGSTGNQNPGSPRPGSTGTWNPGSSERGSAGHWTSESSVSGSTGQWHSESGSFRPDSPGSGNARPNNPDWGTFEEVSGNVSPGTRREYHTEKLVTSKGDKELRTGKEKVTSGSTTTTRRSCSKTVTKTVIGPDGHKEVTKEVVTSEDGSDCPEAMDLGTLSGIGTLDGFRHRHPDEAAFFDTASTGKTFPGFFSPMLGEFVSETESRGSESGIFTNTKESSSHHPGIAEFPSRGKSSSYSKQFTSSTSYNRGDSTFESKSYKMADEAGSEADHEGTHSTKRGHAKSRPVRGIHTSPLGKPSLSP
T1 sequence (P02675 45-491 limits assumed): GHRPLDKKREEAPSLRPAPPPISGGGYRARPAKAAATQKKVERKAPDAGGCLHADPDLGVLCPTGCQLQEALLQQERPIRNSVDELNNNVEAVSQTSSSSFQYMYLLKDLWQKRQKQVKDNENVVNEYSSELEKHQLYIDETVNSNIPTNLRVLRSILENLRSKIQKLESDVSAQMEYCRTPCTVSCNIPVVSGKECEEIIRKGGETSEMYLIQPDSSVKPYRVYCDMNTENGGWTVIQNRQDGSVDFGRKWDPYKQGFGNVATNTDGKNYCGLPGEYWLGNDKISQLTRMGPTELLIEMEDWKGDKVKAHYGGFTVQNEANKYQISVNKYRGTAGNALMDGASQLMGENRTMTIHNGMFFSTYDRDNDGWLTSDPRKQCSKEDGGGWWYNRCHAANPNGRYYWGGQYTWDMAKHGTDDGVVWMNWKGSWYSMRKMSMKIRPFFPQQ
T1 sequence (P02679 27-437 isoform P02679-2 limits assumed): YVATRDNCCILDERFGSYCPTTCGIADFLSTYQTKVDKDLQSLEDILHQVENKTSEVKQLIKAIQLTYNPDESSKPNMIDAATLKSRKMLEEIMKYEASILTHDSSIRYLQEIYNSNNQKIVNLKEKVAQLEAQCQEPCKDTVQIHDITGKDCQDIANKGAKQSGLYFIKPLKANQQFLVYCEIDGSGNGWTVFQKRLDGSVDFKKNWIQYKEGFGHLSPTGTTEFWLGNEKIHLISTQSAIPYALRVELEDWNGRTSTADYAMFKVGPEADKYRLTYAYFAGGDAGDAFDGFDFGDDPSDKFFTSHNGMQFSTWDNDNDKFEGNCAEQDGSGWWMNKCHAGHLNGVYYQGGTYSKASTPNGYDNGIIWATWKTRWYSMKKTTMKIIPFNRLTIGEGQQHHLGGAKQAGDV
Test: Transmission electron microscopy of fibrin gel cross sections
Conditions: TEM, 0.12% w/v dye
Protocol: Both scanning electron microscopy (SEM) and transmission electron microscopy (TEM) were performed to investigate the effect of the chemical additives on fibril formation microstructure. Gels were made with PBS, TB, or EB as described elsewhere (see, e.g., Gandhi et al., 2018 Acta Biomater., 67:134-46) with the following modifications. Briefly, a mixture of 40 mg/mL fibrinogen, 33 U/mL thrombin, and 0.12% w/v dye final concentrations was plated into a custom acetal mold to create the 300 μm sheet. After a 2 hour incubation at 37° C., the gels were hydrated in PBS for a minimum of 15 minutes.
The gels were then fixed overnight in 2.5% paraformaldehyde and 1% glutaraldehyde in 0.1 M phosphate buffer pH 7 containing 1.0 mM MgCl2 and 0.13 mM CaCl2. After fixation, gels were processed for scanning electron microscopy (SEM). Samples for TEM were processed by initially dehydrating the gels, embedding into plastic resin, and sectioned at a thickness of 100 nm. SEM imaging was performed using a Hitachi S-4700 (Hitachi High Technologies; Schaumburg, IL) microscope. Sections processed for TEM were imaged used a JEOL 1400 microscope (JEOL; Peabody, MA).
TEM was then performed to visualize the cross section of the fibrin gels. […] The PBS fibrin gel appears to have larger mesh spaces, with a large range of fibril diameters and orientation. […]

SMILES	largest fibril diameters
Cc1cc(-c2ccc(/N=N/c3c(S(=O)(=O)O)cc4cc(S(=O)(=O)O)cc(N)c4c3O)c(C)c2)ccc1/N=N/c1c(S(=O)(=O)O)cc2cc(S(=O)(=O)O)cc(N)c2c1O [TB, Trypan Blue]	50-75 nm
Cc1cc(-c2ccc(/N=N/c3ccc4c(S(=O)(=O)O)cc(S(=O)(=O)O)c(N)c4c3O)c(C)c2)ccc1/N=N/c1ccc2c(S(=O)(=O)O)cc(S(=O)(=O)O)c(N)c2c1O [EB, Evans Blue]	40-60 nm

— patent US20230414826A1, “FIBRIN HYDROGELS” (Mayo Foundation for Medical Education and Research, priority 2020, published 2023)
